# From patent publication US6750228B1, “Aromatic sulfone hydroxamic acid metalloprotease inhibitor” (priority 1997, dated 2004)
# Assays:
# [1] = target: T1, MMP-7 (Homo sapiens, UniProt P09237); experiment: In vitro metalloprotease inhibition, pH 7.5 with 0.02% 2-mercaptoethanol; type: biochemical; conditions: selectively inhibit one or more of MMP-2, MMP-9 and MMP-13
# T1 construct: made in house; host or cells: E. coli (clone a gift of Dr. Steven Shapiro, Washington University)
# T1 sequence (P09237 95-267): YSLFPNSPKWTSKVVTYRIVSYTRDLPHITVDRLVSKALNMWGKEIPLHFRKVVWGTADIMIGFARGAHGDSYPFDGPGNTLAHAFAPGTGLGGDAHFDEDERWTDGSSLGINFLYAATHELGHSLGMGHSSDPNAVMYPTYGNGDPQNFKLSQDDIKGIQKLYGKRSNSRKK
# Experimental: The compounds prepared in the manner described in the Examples above were assayed for activity by an in vitro assay. […] Briefly, 4-aminophenylmercuric acetate (APMA) or trypsin-activated MMPs were incubated with various concentrations of the inhibitor compound at room temperature for 5 minutes.
# MMP-1 expressed in transfected HT-1080 cells was provided by Dr. Harold Welgus of Washington University, St. Louis, Mo. The enzyme was also activated using APMA and was then purified over a hydroxamic acid column. Dr. Welgus also provided transfected HT-1080 cells that expressed MMP-9. Transfected cells that expressed MMP-2 were provided by Dr. Gregory Goldberg, also of Washington University. Studies with MMP-7 were carried out at pH 7.5 in the presence of 0.02% 2-mercaptoethanol using conditions otherwise similar to those used for the other enzymes. […]
# In the absence of inhibitor activity, a fluorogenic peptide was cleaved at the gly-leu peptide bond, separating the highly fluorogenic peptide from a 2,4-dinitrophenyl quencher, resulting in an increase of fluorescence intensity (excitation at 328 nm/emission at 415 nm). Inhibition was measured as a reduction in fluorescent intensity as a function of inhibitor concentration, using a Perkin Elmer L550 plate reader. The IC50 values were calculated from those values. […]
# [2] = target: T2, MMP-13 (Homo sapiens, UniProt P45452); experiment: biochemical; conditions: recombinant human MMP-13, MCA peptide substrate 4 μM, pH 7.5, room temperature; read-out: MMP-13 IC50
# T2 construct: made in house; host or cells: baculovirus / insect cells
# Procedure, shortened: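 APMA- or trypsin-activated enzymes were preincubated with inhibitor for 5 min at room temperature, then the fluorogenic substrate MCA-Pro-Leu-Gly-Leu-Dpa-Ala-Arg-NH2 was added to a final 4 μM.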
# [3] = target: T3, MMP-1 (Homo sapiens, UniProt P03956); experiment: biochemical; conditions: recombinant human MMP-1, MCA peptide substrate 4 μM, pH 7.5, room temperature; read-out: MMP-1 IC50
# T3 construct: made in house; host or cells: transfected HT-1080 cells (provided by Dr. Harold Welgus, Washington University)
# T3 sequence (P03956 100-469): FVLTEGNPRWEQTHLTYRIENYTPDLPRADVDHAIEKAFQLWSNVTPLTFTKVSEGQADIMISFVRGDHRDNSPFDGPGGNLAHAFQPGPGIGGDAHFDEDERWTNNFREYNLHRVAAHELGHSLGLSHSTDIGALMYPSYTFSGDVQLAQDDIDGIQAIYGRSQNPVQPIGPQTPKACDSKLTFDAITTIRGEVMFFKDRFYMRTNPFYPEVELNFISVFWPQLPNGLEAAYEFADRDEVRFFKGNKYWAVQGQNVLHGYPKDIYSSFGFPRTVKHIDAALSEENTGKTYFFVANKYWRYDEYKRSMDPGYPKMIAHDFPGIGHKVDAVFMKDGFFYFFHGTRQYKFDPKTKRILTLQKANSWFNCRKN
# Procedure, shortened: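 Substrate MCA-PLGL-Dpa-AR-NH2 at 4 μM final; pH 7.5 Tris/NaCl/CaCl2 buffer with 0.05% polyethyleneglycol lauryl ether, 1% DMSO, room temperature. MMP-1 was expressed in transfected HT-1080 cells and APMA-activated.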
# [4] = target: T4, MMP-2 (Homo sapiens, UniProt P08253); experiment: biochemical; conditions: recombinant human MMP-2, MCA peptide substrate 4 μM, pH 7.5, room temperature; read-out: MMP-2 IC50
# T4 construct: made in house; provided by Dr. Gregory Goldberg, Washington University
# T4 sequence (P08253 110-660): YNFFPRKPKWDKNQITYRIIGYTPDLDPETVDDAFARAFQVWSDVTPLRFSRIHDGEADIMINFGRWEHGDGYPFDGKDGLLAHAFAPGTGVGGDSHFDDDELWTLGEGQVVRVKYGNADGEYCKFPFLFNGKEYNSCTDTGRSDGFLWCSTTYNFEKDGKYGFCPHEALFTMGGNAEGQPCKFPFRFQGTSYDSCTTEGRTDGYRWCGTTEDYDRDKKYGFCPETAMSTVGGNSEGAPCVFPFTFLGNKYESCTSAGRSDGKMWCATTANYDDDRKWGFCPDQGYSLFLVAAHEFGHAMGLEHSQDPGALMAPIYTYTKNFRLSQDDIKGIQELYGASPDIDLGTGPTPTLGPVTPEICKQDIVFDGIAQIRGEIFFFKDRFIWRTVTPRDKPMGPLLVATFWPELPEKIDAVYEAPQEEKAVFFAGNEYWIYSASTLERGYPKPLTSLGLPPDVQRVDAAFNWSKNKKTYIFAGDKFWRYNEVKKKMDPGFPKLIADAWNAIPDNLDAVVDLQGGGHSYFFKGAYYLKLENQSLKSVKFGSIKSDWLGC
# Procedure, shortened: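 Assay buffer 100 mM Tris-HCl, 100 mM NaCl, 10 mM CaCl2, pH 7.5. Activated MMP + inhibitor, 5 min RT; then methoxycoumarin peptide substrate, 4 μM final. Readout fluorescence; IC50 calculated.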
# [5] = tested on: advanced, rapidly progressive, treatment-refractory solid tumor cancers; conditions: cited from earlier work
Compound,"inhibition of MMP-7 compared with MMP-2, MMP-9 and MMP-13 (selectivity) [1]",IC50 [2],IC50 [3],IC50 [4],most common drug-related toxicity ([5]; clinical trials in patients),"cancer-specific antigens used as surrogate markers for biological activity ([5]; patients with colorectal, pancreatic, ovarian, prostate cancers)"
N#Cc1cccc(S(=O)(=O)N2CCN(c3ccc(S(=O)(=O)C4(C(=O)NO)CCOCC4)cc3)CC2)c1 [Example 672],substantially less inhibition,6.7 nM,> 10000 nM,60 nM,,
Cn1cnc(S(=O)(=O)N2CCN(c3ccc(S(=O)(=O)C4(C(=O)NO)CCOCC4)cc3)CC2)c1 [Example 684],substantially less inhibition,60 nM,> 10000 nM,1450 nM,,
"CNC(=O)[C@@H](NC(=O)[C@H](CC(C)C)[C@H](O)C(=O)NO)C(C)(C)C [marimastat, Marimastat]",,,,,musculoskeletal pain and stiffness,dose-related reduction in the rise of cancer-specific antigens
O=C(NO)C1(S(=O)(=O)c2ccc(OC3CN(C(c4ccccc4)c4ccccc4)C3)cc2)CCOCC1 [Example 794],,1500 nM,> 10000 nM,2900 nM,,
